Laboratory results: publication PMC7790557, “Pleiotropic Properties of Amphiphilic Dihydropyridines, Dihydropyridones, and Aminovinylcarbonyl Compounds” (Oxidative Medicine and Cellular Longevity, 2020)
Read-outs that look alike come from different tables or passages of the source.

Tests used:
[1] = system: cancer cell lines HT-1080 and MH-22A; experiment: in vitro; format: cell-based
Experimental: (§1) After incubation, the staining solution was removed. The cells were washed 4 times with water.

[2] = system: NIH3T3 (mouse embryonic fibroblast); experiment: Basal cytotoxicity test, Neutral Red Uptake (NRU) assay; settings: for IC50: Mus musculus, NIH3T3, 24 h
Experimental: The NRU cytotoxicity assay procedure is based on the ability of viable cells to incorporate and bind neutral red, a supravital dye.
Balb/c NIH 3T3 (mouse Swiss albino embryo fibroblast, ATCC® CRL-1658™) cells (9000 cells/well) were placed into 96-well plates for 24 h in Dulbecco's modified Eagle's medium (DMEM) containing 5% fetal bovine serum. Then, the cells were exposed to the test compound over a range of seven concentrations (1000, 316, 100, 31, 10, 3, and 1 μg/ml) for 24 h. Untreated cells were used as a control. After 24 h, the medium was removed from all plates. Then, 150 μl of neutral red solution was added (0.05 mg/ml NR in DMEM 24 h preincubated at 37°C and then filtered before use through a 0.22 μm syringe filter). Plates were incubated for 3 h, and then, the cells were washed three times with PBS. The dye within viable cells was released by extraction with a mixture of acetic acid, ethanol, and water (1 : 50 : 49). The absorbance of neutral red was measured using a spectrophotometer multiplate reader (Tecan Infinite M1000) at 540 nm. The optical density (OD) was calculated using the following formula: OD (treated cells) × 100/OD (control cells). The IC50 values were calculated using the GraphPad Prism® 3.0 program.

[3] = system: HT-1080 (human lung fibrosarcoma); experiment: Cytotoxicity, MTT assay, HT-1080; format: cell-based; settings: Homo sapiens, read-out: HT-1080 IC50 (MTT)
Source text: (§2) Reduction takes place only when mitochondrial reductase enzymes are active, and therefore, conversion is directly related to the number of viable cells which can be quantified by the absorbance of the solution (between λ = 500 and 600 nm) using a spectrophotometer.

[4] = Cytotoxicity, crystal violet (CV) assay, MH-22A; format: cell-based, mouse; settings: mouse, summarises CV and MTT values, read-out: cytotoxicity towards MH-22A cells; for IC50 at 72 h: MH-22A cells (hepatoma)
Experimental: as §1

MH-22A (mouse hepatoma) [5] = experiment: Cytotoxicity, crystal violet (CV) assay, MH-22A; format: cell-based; settings: Mus musculus, read-out: MH-22A IC50 (CV)
Experimental: as §1

MH-22A (mouse hepatoma) [6] = experiment: Cytotoxicity, MTT assay, MH-22A; format: cell-based; settings: Mus musculus, read-out: MH-22A IC50 (MTT)
Source text: as §2

[7] = Cytotoxicity, crystal violet (CV) assay, HT-1080; settings: human
Experimental: (§3) IC50 is the compound concentration (μg/ml) at which 50% of the cells die. […] CV staining can be used to quantify the total DNA of the remaining population and thus is used to determine the number of live cells based on the concentration of the dye which remains after staining.
(§4) Tumor cell lines HT-1080 (human connective tissue fibrosarcoma, ATCC® CCL-121™) and MH-22A (mouse hepatocarcinoma, ECACC, cat. Nr. 96121721) were used.
(§5) HT-1080 and MH-22A cells were seeded in 96-well plates in Dulbecco's modified Eagle's (DMEM) medium containing 10% fetal bovine serum and 4 mM L-glutamine, without antibiotics, and cultivated for 72 h by exposure to different concentrations of compounds. Cell viability was measured using 3-(4,5-dimethylthiazol-2-yl)-2,5-diphenyltetrazolinium bromide (MTT). In brief, after incubating with compounds, the culture medium was removed and fresh medium with 0.2 mg/ml MTT was added in each well of the plate. After incubation (3 h, 37°C, 5% CO2), the medium with MTT was removed, and 200 μl DMSO was added at once to each sample. The samples were tested at 540 nm on a Tecan Infinite M1000 multiplate reader. The IC50 was calculated using the program GraphPad Prism® 3.0.
(§6) For the CV assay, cells were stained with 0.05% crystal violet (Sigma-Aldrich) in 30% methanol for 20 minutes at room temperature. After incubation, the staining solution was removed. The cells were washed 4 times with water. For dye solubilization, 200 μl of a solubilizing solution (0.1 M citrate buffer, pH 4.2 in 50% ethanol; 1 : 1 v/v) was added. The absorbance of the solution was measured using a Tecan Infinite M1000 multiplate spectrophotometer at a wavelength of 570 nm [21].

[8] = system: HT-1080 (human lung fibrosarcoma); experiment: Cytotoxicity, crystal violet (CV) assay, HT-1080; settings: Homo sapiens, HT-1080, 72 h, read-out: HT-1080 IC50 (CV)
Experimental: as §3, §4, §5, §6

in vitro [9] = settings: mouse, LD50 (calculated, NIH3T3); calculated from NIH3T3 IC50
Source text: Data from the in vitro tests were used for estimating the starting dose for acute oral systemic toxicity tests in the rodent. The in vivo starting dose is an estimated LD50 value calculated by inserting the in vitroIC50 value into a regression formula: log LD50 (mM/kg) = 0.439 log IC50 (mM) + 0.621 [23–25]. […] Using an alternative in vitro method allows the comparison between possibly toxic new compounds and selecting compounds for further study vastly reducing the number of animal experiments.
Additionally, the compound influence on “normal” mouse fibroblasts (NIH3T3) was estimated for the studies of structure-activity relationships and exploration of the effect of substituents.

in vitro [10] = format: cell-based; settings: human and mouse, summarises both cell lines, CV and MTT, read-out: cytotoxicity on cancer cell lines HT-1080 and MH-22A
Experimental: as §1

[11] = cited from earlier work
[12] = Electrochemical oxidation potentials, cyclic voltammetry; format: physicochemical; settings: glassy carbon electrode, dry acetonitrile; for Oxidation potential E^ox: Table 4, vs Ag/Ag+, 0.1 M TBABF4, tested as perchlorates; for electrooxidation potential: cyclic voltammetry
Experimental: A stationary glassy carbon disk electrode (d = 0.5 mm) served as the working electrode, while the counterelectrode was a Pt wire. The oxidation potentials were measured relative to a Ag/Ag^+ reference electrode. Acetonitrile was dried over P2O5 and distilled; the distillate was stored over CaH2 and redistilled just before use. Recrystallized tetrabutylammonium tetrafluoroborate (TBABF4) was used as a supporting electrolyte at 0.1 M concentration.
The electrochemical oxidation of the selected compounds studied in this work was performed by cyclic voltammetry on a stationary glassy carbon electrode in dry acetonitrile; the data is presented in Table 4. The perchlorates of the tested amphiphiles were obtained from the corresponding bromides by treating their abs. MeOH solutions with excess of conc. HClO4 according to the procedure elaborated by Turovska et al..

[13] = HT-1080, Table 1, 72 h exposure
[14] = HT-1080, Table 2, 72 h exposure
[15] = read-out: NIH3T3 IC50 (NR), Table 1, 24 h exposure

SMILES | cytotoxicity to cancer cell lines HT-1080 and MH-22A (in words) [1] | toxicity to noncancerous NIH3T3 cells (in words) [2] | IC50 [3, 13] | IC50 at 72 h [4] | IC50 (MH-22A (mouse hepatoma) [5]; Table 1, 72 h exposure) | IC50 (MH-22A (mouse hepatoma) [6]; Table 1, 72 h exposure) | IC50 at 72 h ([7]; HT-1080 cells (fibrosarcoma)) | IC50 [8] | IC50 ([2]; read-out: NIH3T3 IC50 (NR)) | Oxidation potential E^ox [12] | also measured
O=C(OCCCCCCCCCCCC(F)(F)C(F)(F)C(F)(F)C(F)(F)C(F)(F)C(F)(F)C(F)(F)C(F)(F)F)C1=C(C[n+]2ccccc2)NC(C[n+]2ccccc2)=C(C(=O)OCCCCCCCCCCCC(F)(F)C(F)(F)C(F)(F)C(F)(F)C(F)(F)C(F)(F)C(F)(F)C(F)(F)F)C1c1ccccc1 [compound 25] | undetectable toxicity | low toxicity | – | – | – | – | – | – | – | – | –
CCCCCCCCCCCCOC(=O)C1=C(C[n+]2cccc(C(C)=O)c2)NC(C[n+]2cccc(C(C)=O)c2)=C(C(=O)OCCCCCCCCCCCC)C1c1ccccc1.[Br-].[Br-] [compound 14, 1,1'-((3,5-Bis((dodecyloxy)carbonyl)-4-phenyl-1,4-dihydropyridine-2,6-diyl)bis(methylene))bis(3-acetylpyridin-1-ium) dibromide] | – | practically nontoxic | 3 ± 0.3 µg/mL | 50 to 100 µg/mL | 100 ± 13 µg/mL | 49 ± 9 µg/mL | ~3 µg/mL | 3 ± 0.4 µg/mL | 922 ± 24 µg/mL | – | –
COC(=O)C1=C(C[n+]2ccccc2)NC(=O)CC1c1ccccc1OC(F)F.[Br-] (centres unmarked) [compound 28, 1-({4-[2-(Difluoromethoxy)phenyl]-3-(methoxycarbonyl)-6-oxo-1,4,5,6-tetrahydropyridin-2-yl}methyl)pyridinium bromide] | inert | – | – | – | – | – | – | > 100 µg/mL | 1130 ± 85 µg/mL | – | IC50 [3, 14]: > 100 µg/mL; IC50 (MH-22A (mouse hepatoma) [5]; Table 2, 72 h exposure): > 100 µg/mL; IC50 (MH-22A (mouse hepatoma) [6]; Table 2, 72 h exposure): > 100 µg/mL
CCCCCCCCCCCCOC(=O)c1c(C[n+]2ccccc2)nc(C[n+]2ccccc2)c(C(=O)OCCCCCCCCCCCC)c1-c1ccccc1.[Br-].[Br-] [compound 27, 1,1’-((3,5-Bis(dodecyloxycarbonyl)-4-phenylpyridine-2,6-diyl)bis(methylene))-bis(pyridin-1-ium)dibromide] | – | not harmful at all | 3.1 ± 0.5 µg/mL | – | 3 ± 0.3 µg/mL | 3.3 ± 0.4 µg/mL | – | 3.2 ± 0.8 µg/mL | 900 ± 42 µg/mL | – | LD50 (in vitro [9]): 3950 mg/kg; IC50 at 72 h (in vitro [10]; HT-1080 cells and MH-22A cells (the value covers both lines)): ~3 µg/mL
CCCCCCCCCCCCOC(=O)C1=C(C[n+]2ccncc2)NC(C[n+]2ccncc2)=C(C(=O)OCCCCCCCCCCCC)C1c1ccccc1 [compound 16, 1,1'-((3,5-Bis((dodecyloxy)carbonyl)-4-phenyl-1,4-dihydropyridine-2,6-diyl)bis(methylne))bis(pyrazin-1-ium) dibromide] | practically inert | nontoxic | > 100 µg/mL | – | > 100 µg/mL | > 100 µg/mL | – | > 100 µg/mL | – | – | IC50 [2, 15]: > 1000 µg/mL
CCCCCCCCCCCCOC(=O)C1=C(C[n+]2ccc(N(C)C)cc2)NC(C[n+]2ccc(N(C)C)cc2)=C(C(=O)OCCCCCCCCCCCC)C1c1ccccc1.[Br-].[Br-] [compound 13, 1,1'-((3,5-Bis((dodecyloxy)carbonyl)-4-phenyl-1,4-dihydropyridine-2,6-diyl)bis(methylene))bis(4-(dimethylamino)pyridin-1-ium) dibromide] | – | – | 3 ± 0.6 µg/mL | – | 6 ± 2 µg/mL | 10 ± 3 µg/mL | – | 10 ± 1 µg/mL | 119 ± 13 µg/mL | – | antiradical activity (ARA), DPPH free radical scavenging ([11]; untreated DPPH level designated 100%): 27%
COC(=O)C1=C(C[n+]2ccccc2)N(Cc2ccccc2)C(=O)CC1.[O-][Cl+3]([O-])([O-])[O-] [compound 29, 1-{[1-Benzyl-3-(methoxycarbonyl)-6-oxo-1,4,5,6-tetrahydropyridin-2-yl]methyl}pyridinium perchlorate] | inert | – | – | – | – | – | – | > 100 µg/mL | – | 2.35 V | IC50 [3, 14]: > 100 µg/mL; IC50 (MH-22A (mouse hepatoma) [5]; Table 2, 72 h exposure): > 100 µg/mL; IC50 (MH-22A (mouse hepatoma) [6]; Table 2, 72 h exposure): > 100 µg/mL; electrooxidation potential [12]: 2.35 V; IC50 ([2]; read-out: NIH3T3 IC50 (NR), Table 2, 24 h exposure): 972 ± 27 µg/mL
O=C(OCCCCCCCCCCCC(F)(F)F)C1=C(C[n+]2ccccc2)NC(C[n+]2ccccc2)=C(C(=O)OCCCCCCCCCCCC(F)(F)F)C1c1ccccc1.[O-][Cl+3]([O-])([O-])[O-].[O-][Cl+3]([O-])([O-])[O-] [compound 22, 1,1'-((4-phenyl-3,5-bis(((12,12,12-trifluorododecyl)oxy)carbonyl)-1,4-dihydropyridine-2,6-diyl)bis(methylene))bis(pyridin-1-ium) diperchlorate] | – | – | 10 ± 2 µg/mL | 10 to 19 µg/mL | 10 ± 1 µg/mL | 19 ± 5 µg/mL | 10 to 18 µg/mL | 18 ± 5 µg/mL | – | 1.57 V | IC50 [2, 15]: 16 ± 3 µg/mL
CCOC(=O)C1=C(C)NC(C)=C(C(=O)OCC)C1 [Diludin, reference compound] | – | – | – | – | – | – | – | – | – | – | antiradical activity (ARA) [11]: 40%
CCCCCCCCCCCCOC(=O)C1=C(C[n+]2ccccc2)NC(C[n+]2ccccc2)=C(C(=O)OCCCCCCCCCCCC)C1c1ccccc1.[Br-].[Br-] [compound 10, 1,1'-((3,5-Bis((dodecyloxy)carbonyl)-4-phenyl-1,4-dihydropyridine-2,6-diyl)bis(methylene))bis(pyridin-1-ium) dibromide] | – | – | – | – | – | – | – | 3 ± 0.5 µg/mL | 100 ± 6 µg/mL | 1.58 V | IC50 ([3]; HT-1080, 72 h): 3 ± 0.3 µg/mL; IC50 [4]: 3 to 6 µg/mL; IC50 (MH-22A (mouse hepatoma) [5]; 72 h): 6 ± 1 µg/mL; IC50 (MH-22A (mouse hepatoma) [6]; 72 h): 3 ± 0.8 µg/mL; electrooxidation potential [12]: 1.57–1.58 V; IC50 at 72 h (in vitro [10]): 3 to 6 µg/mL; IC50 at 72 h [7]: ~3 µg/mL
CCCCCCCCCCCCOC(=O)C1=C(C[n+]2ccc(C)cc2)NC(C[n+]2ccc(C)cc2)=C(C(=O)OCCCCCCCCCCCC)C1c1ccccc1.[Br-].[Br-] [compound 12, 1,1'-((3,5-Bis((dodecyloxy)carbonyl)-4-phenyl-1,4-dihydropyridine-2,6-diyl)bis(methylene))bis(4-methylpyridin-1-ium) dibromide] | – | – | 5 ± 1 µg/mL | 29 to 40 µg/mL | 40 ± 2 µg/mL | 29 ± 2 µg/mL | 5 to 10 µg/mL | 10 ± 2 µg/mL | 79 ± 11 µg/mL | – | –
CCCCCCCCCCCCOC(=O)C1=C(C[n+]2ccc(C(F)(F)F)cc2)NC(C[n+]2ccc(C(F)(F)F)cc2)=C(C(=O)OCCCCCCCCCCCC)C1c1ccccc1.[Br-].[Br-] [compound 21, 1,1'-((3,5-Bis((dodecyloxy)carbonyl)-4-phenyl-1,4-dihydropyridine-2,6-diyl)bis(methylene))bis(4-(trifluoromethyl)pyridin-1-ium) dibromide] | – | – | 4 ± 0.5 µg/mL | 19 to 49 µg/mL | 49 ± 8 µg/mL | 19 ± 6 µg/mL | 2 to 4 µg/mL | 2 ± 0.3 µg/mL | 12 ± 4 µg/mL | 1.63 V | electrooxidation potential [12]: 1.63 V
